In patent publication US10577373B2, “TYK2 inhibitors and uses thereof” (Nimbus Lakshmi, Inc., priority 2017, dated 2020):
Read-outs that look alike come from different tables or passages of the source.

What was measured:
JAK2 kinase domain (JH1) = JAK2 kinase domain (JH1) (Homo sapiens (Human), UniProt O60674); experiment: JAK2 Radioactive Kinase Assay; format: biochemical; settings: ATP 10 μM
Experimental: (§1) The Tyk2 and JAK2 radioactive kinase assay measures the percent inhibition at the Tyk2 kinase domain (JH1) and the percent inhibition at the JAK2 kinase domain (JH1). Results of the assay are expressed as percent inhibition at 10 μM.

[1] = biological target: human TYK2 (JH2 domain-pseudokinase) (Homo sapiens (Human), UniProt P29597); experiment: TYK2 JH2 Domain Binding Assay (KINOMEscan)
Sequence of human TYK2 (JH2 domain-pseudokinase) (P29597 556-888): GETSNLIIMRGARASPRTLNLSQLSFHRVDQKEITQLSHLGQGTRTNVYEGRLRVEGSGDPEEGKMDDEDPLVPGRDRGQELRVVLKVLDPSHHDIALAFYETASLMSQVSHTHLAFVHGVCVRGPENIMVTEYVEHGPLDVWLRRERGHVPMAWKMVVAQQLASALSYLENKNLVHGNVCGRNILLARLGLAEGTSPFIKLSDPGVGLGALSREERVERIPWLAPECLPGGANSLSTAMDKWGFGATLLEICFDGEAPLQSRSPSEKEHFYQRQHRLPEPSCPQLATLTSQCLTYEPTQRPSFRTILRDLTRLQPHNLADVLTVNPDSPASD
Experimental: Binding constants for compounds of the present invention against the JH2 domain were determined by the following protocol for a KINOMEscan® assay (DiscoveRx). A fusion protein of a partial length construct of human TYK2 (JH2 domain-pseudokinase) (amino acids G556 to D888 based on reference sequence NP_003322.3) and the DNA binding domain of NFkB was expressed in transiently transfected HEK293 cells. From these HEK 293 cells, extracts were prepared in M-PER extraction buffer (Pierce) in the presence of Protease Inhibitor Cocktail Complete (Roche) and Phosphatase Inhibitor Cocktail Set II (Merck) per manufacturers' instructions. The TYK2 (JH2 domain-pseudokinase) fusion protein was labeled with a chimeric double-stranded DNA tag containing the NFkB binding site (5′-[…]-3′) fused to an amplicon for qPCR readout, which was added directly to the expression extract (the final concentration of DNA-tag in the binding reaction is 0.1 nM).
The liganded beads were blocked with excess biotin and washed with blocking buffer (SeaBlock (Pierce), 1% BSA, 0.05% Tween 20, 1 mM DTT) to remove unbound ligand and to reduce nonspecific binding.
Extracts were used directly in binding assays without any enzyme purification steps at a ≥10,000-fold overall stock dilution (final DNA-tagged enzyme concentration<0.1 nM). Extracts were loaded with DNA-tag and diluted into the binding reaction in a two step process. First extracts were diluted 1:100 in 1× binding buffer (PBS/0.05% Tween 20/10 mM DTT/0.1% BSA/2 μg/ml sonicated salmon sperm DNA) containing 10 nM DNA-tag. This dilution was allowed to equilibrate at room temperature for 15 minutes and then subsequently diluted 1:100 in 1× binding buffer. […] Kds were determined using an 11-point 3-fold compound dilution series with three DMSO control points. […] The compounds were then diluted directly into the assays such that the final concentration of DMSO was 0.9%. All reactions performed in polypropylene 384-well plates. Each was a final volume of 0.02 mL. Assays were incubated with shaking for 1 hour at room temperature. Then the beads were pelleted and washed with wash buffer (lx PBS, 0.05% Tween 20) to remove displaced kinase and test compound. […] The qPCR protocol consisted of a 10 minute hot start at 95° C., followed by 35 cycles of 95° C. for 15 seconds, 60° C. for 1 minute.
Kds were determined using an 11-point 3-fold compound dilution series with three DMSO control points. […] The compounds were then diluted directly into the assays such that the final concentration of DMSO was 0.9%. The Kds were determined using a compound top concentration of 30,000 nM. Kd measurements were performed in duplicate.
Binding constants (Kds) were calculated with a standard dose-response curve using the Hill equation: […]
The Hill Slope was set to −1.

Tyk2 kinase domain (JH1) = Tyk2 kinase domain (JH1) (Homo sapiens (Human), UniProt P29597); experiment: Tyk2 Radioactive Kinase Assay; format: biochemical; settings: ATP 10 μM
Sequence of Tyk2 kinase domain (JH1) (P29597 897-1176): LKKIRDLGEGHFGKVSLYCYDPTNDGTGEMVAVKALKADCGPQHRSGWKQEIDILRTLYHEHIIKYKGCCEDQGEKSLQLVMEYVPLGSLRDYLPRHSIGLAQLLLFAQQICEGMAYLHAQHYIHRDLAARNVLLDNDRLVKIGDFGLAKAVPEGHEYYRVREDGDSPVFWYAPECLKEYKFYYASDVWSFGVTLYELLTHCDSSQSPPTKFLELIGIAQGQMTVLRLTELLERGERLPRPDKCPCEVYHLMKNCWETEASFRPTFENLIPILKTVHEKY
Experimental: as §1

[2] = tested on: GM-CSF induced STAT5 phosphorylation mediated by the JAK2/JAK2 homdimeric complex; experiment: GM-CSF Induced pSTAT5 in Human PBMC; settings: GM-CSF 5 ng/mL for 20 minutes, pSTAT5
Text: Human PBMC are isolated from buffy coat and are stored frozen for assays as needed.

[3] = tested on: IL-12 induced STAT4 phophorylation mediated by Tyk2/JAK2 (heterodimeric complex); experiment: IL-12 Induced pSTAT4 in Human PBMC; format: cell-based; settings: 1.7 ng/mL IL-12
Text: The IL-12 Induced pSTAT4 assay evaluates the inhibition of IL-12 induced STAT4 phophorylation mediated by Tyk2/JAK2 (heterodimeric complex).

[4] = Homo sapiens, PBMC, 20 min, read-out: PBMC_GMCSF_pSTAT5 IC50, human PBMC

Sequence of JAK2 kinase domain (JH1) (O60674 849-1124): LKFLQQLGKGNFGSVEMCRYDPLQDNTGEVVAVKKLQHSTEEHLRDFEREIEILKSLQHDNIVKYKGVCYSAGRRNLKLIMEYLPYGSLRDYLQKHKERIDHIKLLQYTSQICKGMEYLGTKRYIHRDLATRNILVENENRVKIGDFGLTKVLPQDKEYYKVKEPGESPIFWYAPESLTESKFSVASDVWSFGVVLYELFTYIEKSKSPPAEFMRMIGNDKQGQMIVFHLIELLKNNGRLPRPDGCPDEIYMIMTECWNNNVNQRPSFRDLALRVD

Row | SMILES | Kd [1] [nM] | IC50 [2, 4] [nM] | IC50 [3] [nM] | further results
1 | CNc1cc(Nc2cccn(-c3cnc(C(=O)N(C)C)cn3)c2=O)nc2c(C(N)=O)cnn12 [I-53, 5-((1-(5-(dimethylcarbamoyl)pyrazin-2-yl)-2-oxo-1,2-dihydropyridin-3-yl)amino)-7-(methylamino)pyrazolo[1,5-a]pyrimidine-3-carboxamide] | < 0.2 | – | – | inhibition at 10 µM (JAK2 kinase domain (JH1); 10 μM compound): < 50%; inhibition at 10 µM (Tyk2 kinase domain (JH1); 10 μM compound): < 50%
2 | CNc1cc(Nc2cccn(-c3cccc(C)n3)c2=O)nc2c(C(=O)NC3CC3)cnn12 [I-237] | – | – | – | JAK2 JH1% Inhibition @ 10 μM (JAK2 kinase domain (JH1); 10 μM compound): A (percent inhibition at 10 μM lower than 50); Tyk2 JH1% Inhibition @ 10 μM (Tyk2 kinase domain (JH1); 10 μM compound): A (percent inhibition at 10 μM lower than 50)
3 | CNc1cc(Nc2cccnc2OC2CC2)nc2c(C(=O)NC3CC4(COC4)C3)cnn12 [I-433] | – | – | – | inhibition at 10 µM (JAK2 kinase domain (JH1); compound at 10 μM): 50 to 70%; inhibition at 10 µM (Tyk2 kinase domain (JH1); compound at 10 μM): < 50%
4 | [2H]C([2H])([2H])Oc1ncccc1Nc1cc(NC)n2ncc(C(=O)N[C@H]3[C@@H]4COC[C@@H]43)c2n1 [I-447] | < 0.2 | – | – | –
5 | CNc1cc(Nc2cc(F)cn(C3CCOCC3)c2=O)nc2c(C(=O)NCC(C)(C)CO)cnn12 [I-529] | – | – | – | inhibition at 10 µM (JAK2 kinase domain (JH1); compound at 10 μM): < 50%; inhibition at 10 µM (Tyk2 kinase domain (JH1); compound at 10 μM): < 50%
6 | CNc1cc(Nc2cccc([C@@H]3CCCOC3)n2)nc2c(C(=O)N[C@H]3CC[C@H]3O)cnn12 [I-645] | 1 to 10 | – | – | –
7 | CNc1cc(Nc2cc(Cl)cn(C3CCOCC3)c2=O)nc2c(C(=O)NCC(C)(C)CO)cnn12 [I-694] | < 0.2 | > 50000 | < 100 | inhibition at 10 µM (JAK2 kinase domain (JH1); compound at 10 μM): < 50%; inhibition at 10 µM (Tyk2 kinase domain (JH1); compound at 10 μM): < 50%
8 | CNc1cc(Nc2cccc(N3CCOC4(CCOC4)C3)n2)nc2c(C(=O)NC3CC3)cnn12 (centres unmarked) [I-744] | – | – | – | inhibition at 10 µM (JAK2 kinase domain (JH1); compound at 10 μM): < 50%; inhibition at 10 µM (Tyk2 kinase domain (JH1); compound at 10 μM): < 50%
9 | CNc1cc(-c2cn(CCN3CCN(C)CC3)c3ncccc23)nc2c(C(=O)N[C@H]3CC[C@@H]3OC)cnn12 [I-952] | – | > 2500 | 100 to 500 | –
10 | CNc1cc(-c2cn(C3CC3)c3ncccc23)nc2c(C(=O)NC3CC3)cnn12 [I-960, N-cyclopropyl-5-(1-cyclopropyl-1H-pyrrolo[2,3-b]pyridin-3-yl)-7-(methylamino)pyrazolo[1,5-a]pyrimidine-3-carboxamide] | – | > 50000 | < 100 | –
11 | CNc1cc(-c2cn(C3CC3)c3ncccc23)nc2c(C(=O)N[C@@H]3C[C@@H]3F)cnn12 [I-961, 5-(1-cyclopropyl-1H-pyrrolo[2,3-b]pyridin-3-yl)-N-((1R,2S)-2-fluorocyclopropyl)-7-(methylamino)pyrazolo[1,5-a]pyrimidine-3-carboxamide] | – | > 50000 | < 100 | –
12 | CNc1cc(-c2cn(C3CC3)c3ncccc23)nc2c(C(=O)N[C@H]3CC[C@H]3O)cnn12 [I-992, 5-(1-cyclopropyl-1H-pyrrolo[2,3-b]pyridin-3-yl)-N-((1S,2R)-2-hydroxycyclobutyl)-7-(methylamino)pyrazolo[1,5-a]pyrimidine-3-carboxamide] | – | > 50000 | < 100 | –
13 | CNc1cc(-c2cn([C@H]3CCN(CCF)C3)c3cnccc23)nc2c(C(=O)N[C@@H]3C[C@@H]3F)cnn12 [I-1362] | 0.2 to 1 | – | < 100 | –
14 | CNc1cc(-c2cn([C@H]3CCN(CCF)C3)c3cnccc23)nc2c(C(=O)NC3CC3)cnn12 [I-1363] | 0.2 to 1 | – | – | –
15 | CNc1cc(Nc2cccn(C(C)C)c2=O)cc2c(C(=O)N[C@H]3CC[C@@]3(C)O)cnn12 [I-1371] | < 0.2 | – | – | –
16 | CNc1cc(C2=CN(C(C)C)C3N=CC(F)=CC23)nc2c(C(=O)N[C@@H]3CC[C@@H]3O)cnn12 (some centres unmarked) [I-1386] | 1 to 10 | – | – | –
17 | CNc1cc(C2=CN(C(C)C)C3N=CC(F)=CC23)nc2c(C(=O)N[C@H]3CC[C@H]3O)cnn12 (some centres unmarked) [I-1387] | 1 to 10 | – | < 100 | –

More lines, main results first:

Row | Kd [1] [nM] | IC50 [2, 4] [nM] | IC50 [3] [nM] | SMILES | further results
18 | – | > 50000 | < 100 | CNc1cc(Nc2cccn([C@@H]3CCC[C@H](OC)C3)c2=O)nc2c(C(=O)NCC(C)(C)CO)cnn12 [I-951] | –
19 | – | > 50000 | < 100 | CNc1cc(Nc2cccn([C@H]3CC[C@](C)(OC)CC3)c2=O)nc2c(C(=O)N[C@@H]3CC[C@H]3OC)cnn12 [I-959] | –
20 | < 0.2 | > 50000 | < 100 | CNc1cc(Nc2cccn([C@H]3CCCC[C@H]3O)c2=O)nc2c(C(=O)N[C@@H]3C[C@@H]3F)cnn12 [I-988, N-((1R,2S)-2-fluorocyclopropyl)-5-((1-((1S,2R)-2-hydroxycyclohexyl)-2-oxo-1,2-dihydropyridin-3-yl)amino)-7-(methylamino)pyrazolo[1,5-a]pyrimidine-3-carboxamide] | inhibition at 10 µM (JAK2 kinase domain (JH1); 10 μM compound): < 50%; inhibition at 10 µM (Tyk2 kinase domain (JH1); 10 μM compound): < 50%
21 | – | > 50000 | < 100 | CNc1cc(Nc2cccn([C@@H]3CCC[C@H](OC)C3)c2=O)nc2c(C(=O)N[C@@H]3CC[C@H]3OC)cnn12 [I-995] | –
22 | – | > 50000 | < 100 | CNc1cc(Nc2cccn(C3CCCCC3)c2=O)nc2c(C(=O)N[C@@H]3CC[C@@H]3O)cnn12 [I-1000] | –
23 | – | – | < 100 | CNc1cc(Nc2cccn(C3CCCCC3)c2=O)nc2c(C(=O)N[C@@H]3CC[C@H]3O)cnn12 [I-1002] | IC50 ([2]; read-out: PBMC_GMCSF_pSTAT5 IC50, human PBMC): > 50000 nM
24 | 0.2 to 1 | – | – | CNc1cc(Nc2cccn(-c3ccccn3)c2=O)nc2c(C(=O)N[C@@H]3CC[C@H]3COC)cnn12 [I-1232] | –
25 | < 0.2 | – | – | CNc1cc(-c2cn(C3CC3)c3ncccc23)nc2c(C(=O)N[C@@H]3CC[C@H]3OC)cnn12 [I-1324] | –
